Assay results reported in article PMC6934184, “Selective DNA-PKcs inhibition extends the therapeutic index of localized radiotherapy and chemotherapy” (The Journal of Clinical Investigation, 2019).

Columns and labels:
[1] = plasma pharmacokinetics across mouse strains and doses; assay type: in vivo
Description: by determining the absorbance at 570 nm of SRB stain dissolved in Tris base (10 mM, pH 10.5) using a spectrophotometer (BMG Labtech).
In vivo pharmacokinetic analyses
All animal experiments were performed in accordance with the Animals (Scientific Procedures) 1986 Act. 8-9 week old mice were purchased from Charles River Laboratories and housed under specific pathogen-free conditions under 12 hour light/dark cycles.
Female CD-1, CD-1 nude, BALB/c nude and C57BL/6 mice were treated with NU5455 (30 or 100 mg/kg prepared in 1% (v/v) acetic acid or NMP:Encapsin (30% aq):PEG4000 (1:6:3 v/v/v) dosed by oral gavage. Blood samples were collected into heparinized tubes at 15, 30, 60, 180 and 360 minutes post-gavage.
Blood samples were centrifuged at 6700 x g for 3 minutes, the plasma removed and stored at -20°C prior to analysis for drug by HPLC with fluorescence detection. Aliquots of plasma (50 µl) were vigorously vortexed with acetonitrile (450 µl) and the precipitate removed by centrifugation at 6700 x g for 5 minutes. […]
Samples (20 µl) were applied to a 10 x 0.46 cm Genesis C18 4 µm column (Grace Vydac) fitted with an in-line filter. […] Analytes were detected by fluorescence at 390 nm following excitation at 242 nm. Plasma concentrations were determined using linear standard curves (0.01 µM – 10 µM, R2 > 0.98) generated by extracting compounds from […]

[2] = system: PI3K; experiment: IGF-1-stimulated phospho-AKT Ser473 in MCF7 cells, Western blot; assay type: cell-based, Human; conditions: up to 10 μM, 50 ng/mL IGF-1, 30 min
Description: Exponentially growing MCF7 cells were exposed to a range of concentrations of NU5455 and NU7441 (0.03–10 μM) for 1 hour. To assess the ability of NU5455 and NU7441 to inhibit autophosphorylation of DNA-PKcs at Ser2056, cells were treated with 10 Gy irradiation and incubated for 30 minutes. Alternatively, to investigate the effects of NU5455 and NU7441 against PI3K-dependent phosphorylation of AKT at Ser473, cells were treated with 50 ng/mL insulin-like growth factor-1 (IGF-1; Invitrogen) for 30 minutes. Cell lysates were prepared for the detection of p–DNA-PKcs Ser2056 and total DNA-PKcs, or p–AKT Ser473 and total AKT, respectively, using Western blotting. […]
Protein lysates were quantified using the Pierce BCA Protein Assay (ThermoFisher). […]
Membranes were then washed in TBST and incubated with HRP-conjugated goat anti-mouse or anti-rabbit antibodies (P0447 and P0448 respectively, Dako) in 5% (w/v) milk/TBST at room temperature for 1-2 hours. Conjugates were detected using Clarity Western ECL Substrate (BioRad) and chemiluminescence imaged using the Fuji LAS-3000 Luminescent Image Analyzer System (Fujifilm). […]
Alternatively, basal pAKT Ser473 levels were subtracted from all other pAKT bands, and pAKT band intensity calculated relative to total AKT expression and given as a percentage relative to IGF-1 stimulated, DMSO-treated cells. […]

SMILES: CN(C(=O)CN1CCOCC1)c1ccc2sc3c(-c4cccc5c(=O)cc(N6CC7CCC(C6)O7)oc45)cccc3c2c1 [NU5455]
- plasma pharmacokinetic profile, CD-1 nude versus C57BL/6 mice ([1]; 30 mg/kg oral): comparable
- duration of plasma concentrations ([1]; 100 mg/kg oral, versus 30 mg/kg): longer duration
- inhibition of IGF-stimulated activation of AKT [2]: did not inhibit
